Columns and labels:
Test in all cases: Initial-rate inhibition of SULT-catalyzed 1-HP sulfonation
Assay type in all cases: biochemical
SULT1A1 = biological target: T1, SULT1A1 (Homo sapiens, UniProt P50225)
T1 construct: E. coli–optimized SULT coding regions were inserted into a pGEX-6P expression vector; N-His/GST/MBP triple tag (PreScission-cleavable) (N, cleaved yes); made in house; host or cells: E. coli BL21(DE3)
Method: (§1) The affinity and specificity of CMP12 and CMP13 were evaluated in initial-rate studies using the four major SULT isoforms expressed in the brain and liver ([27])—SULT1A1, SULT1E1, SULT1A3, and SULT2A1. Initial-rate vs [inhibitor] plots are presented in Fig. 3, A–B. The data are normalized to the rates in the absence of inhibitor. Solid lines passing through the data are the predictions of least-squares fitting to a single-binding-site, partial-inhibition model. The best-fit parameters are found in Table 1. […] Both compounds are partial inhibitors, and their percent inhibition values at saturation (83 and 98%, respectively) agree well with the predicted values.
(§2) Figure 3 Affinity, specificity, and binding sites of CMP12 and CMP13. A and B, inhibition studies. Initial rates of SULT-catalyzed 1-HP sulfonation are plotted as a function of inhibitor concentration. Rates are normalized to the rate observed in the absence of the inhibitor. Inhibition of the major SULT isoforms found in the brain and liver were tested. SULT activity was monitored via the sulfonation-dependent change in 1-HP fluorescence (λex = 325 nm, λem = 375 nm ([15], [28])). Reaction conditions were as follows: SULT (20 nM, active sites), PAPS (0.50 mM, 17 × Km), 1-HP (5.0 μM, 61 × Km), KPO4 (50 mM), pH 7.5, 25(±2) °C. Less than 5% of the concentration-limiting substrate was converted to the product at reaction endpoints. Each data point is the average of three independent determinations. The lines passing through the data are least-squares fits to a noncompetitive partial-inhibition model (see Experiment and Initial rate). C, CMP8 competes with CMP12 and CMP13. Initial rates at saturating CMP12 or CMP13 are plotted as a function of CMP8 concentration. Rates are normalized to the rate observed in the absence of the inhibitor. […] Lines passing through the data are the predictions of a noncompetitive partial-inhibition model in which inhibitors compete for the same site (see Experiment and Binding competition). SULT, sulfotransferase; PAP, 3′-phosphoadenosine-5′-phosphate; SULT1A3, sulfotransferase 1A3; PAPS, 3’-phosphoadenosine 5’-phosphosulfate; 1-HP, 1-hydroxypyrene.
(§3) Initial-rate inhibition parameters were obtained from classical initial-rate studies ([16], [28], [43]). Reactions were initiated by addition of PAPS (0.50 mM, 17 × Km) to a solution containing SULT1A3 (20 nM, active sites), inhibitor (0.2–20 × Ki), 1-HP (5.0 μM, 60 × Km), and KPO4 (50 mM), pH 7.5, 25(±2) °C. Reaction progress was monitored via the fluorescence change associated with 1-HP sulfonation (λex = 325 nm, λem = […] ([15], [28])). Less than 5% of the 1-HP was converted to the product at reaction endpoints. Ki and kcat inh (i.e., turnover at saturating inhibitor and substrate) were obtained by fitting to the following quadratic equation for noncompetitive, partial inhibition at [S] >> Km ([44]):(7) v/Vmax=([Etot]+[ESI](α-1))/[Etot] where(8) α=kcat inh/kcat and(9) [ESI]=[([E]tot+[I]tot+Ki)−[([E]tot+[I]tot+Ki)^2−4·[I]tot·[E]tot]^1/2]/2

SULT1E1 = biological target: T2, SULT1E1 (Homo sapiens, UniProt P49888); details: concentrations as high as 10 μM
T2 construct: E. coli–optimized SULT coding regions were inserted into a pGEX-6P expression vector; N-His/GST/MBP triple tag (PreScission-cleavable) (N, cleaved yes); made in house; host or cells: E. coli BL21(DE3)
T2 sequence (P49888 1-294): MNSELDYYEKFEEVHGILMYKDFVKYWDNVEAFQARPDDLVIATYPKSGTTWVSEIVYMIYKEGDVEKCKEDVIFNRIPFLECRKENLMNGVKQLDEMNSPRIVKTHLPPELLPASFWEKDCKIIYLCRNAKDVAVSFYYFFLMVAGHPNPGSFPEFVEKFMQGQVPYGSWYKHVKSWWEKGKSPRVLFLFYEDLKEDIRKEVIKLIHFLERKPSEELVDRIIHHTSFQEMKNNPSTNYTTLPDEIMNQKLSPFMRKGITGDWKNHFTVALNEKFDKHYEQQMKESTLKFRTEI
Method: as §1, §2, §3

SULT2A1 = biological target: T3, SULT2A1 (Homo sapiens, UniProt Q06520); details: concentrations as high as 10 μM
T3 construct: E. coli–optimized SULT coding regions were inserted into a pGEX-6P expression vector; N-His/GST/MBP triple tag (PreScission-cleavable) (N, cleaved yes); made in house; host or cells: E. coli BL21(DE3)
T3 sequence (Q06520 1-285): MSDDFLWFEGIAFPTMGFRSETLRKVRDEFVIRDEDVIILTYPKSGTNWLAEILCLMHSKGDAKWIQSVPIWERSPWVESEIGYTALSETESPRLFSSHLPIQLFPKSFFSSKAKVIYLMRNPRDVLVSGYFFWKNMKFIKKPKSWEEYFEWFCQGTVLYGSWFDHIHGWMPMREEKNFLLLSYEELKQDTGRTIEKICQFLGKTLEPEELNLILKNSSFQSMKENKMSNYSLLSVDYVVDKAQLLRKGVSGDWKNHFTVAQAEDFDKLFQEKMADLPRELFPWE
Method: as §1, §2, §3

T1 sequence (P50225 whole entry): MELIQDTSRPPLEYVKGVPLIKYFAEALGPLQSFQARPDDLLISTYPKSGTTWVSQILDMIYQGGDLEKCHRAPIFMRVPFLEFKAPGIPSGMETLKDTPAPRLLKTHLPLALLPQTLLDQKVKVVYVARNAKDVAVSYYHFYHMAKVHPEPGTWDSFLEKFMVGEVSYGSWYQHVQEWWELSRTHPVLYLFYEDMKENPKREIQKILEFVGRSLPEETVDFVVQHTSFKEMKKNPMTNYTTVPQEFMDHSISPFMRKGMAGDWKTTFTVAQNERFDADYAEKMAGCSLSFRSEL

Row | Ki (SULT1A1; SULT1A1, initial rate) | inhibition of SULT1E1 (SULT1E1) | inhibition of SULT2A1 (SULT2A1) | inhibition of SULT1A1 (SULT1A1; concentrations as high as 10 μM) | Compound
1 | 3.1 ± 0.2 µM | behaved similarly | behaved similarly |  | CC(C)Cc1ccc2cc(/C=C/C(N)=O)cnc2n1 [CMP13]
2 |  | no detectable inhibition | no detectable inhibition | no detectable inhibition | CC(C)Cc1ccc2cc(CCC(N)=O)ccc2n1 [CMP12]

Reference: PMC7948405, “Small-molecule control of neurotransmitter sulfonation” (The Journal of Biological Chemistry, 2020)
